Laboratory results taken from the supplement of paper PMC10307832.

How the values were obtained:
Assay in all cases: relative viability (nuclei count vs DMSO), 5 days (fraction); higher = more cells survive
NCI-H2126 = test system: NCI-H2126
Method in brief: (§1)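 Relative viability is defined as nuclei in treated wells over nuclei in vehicle wells. Duplicate plates were run and medians reported. Lung cancer cell lines in 1536-well plates were dosed by pin tool one day after seeding, with one drug or with a fixed anchor-drug dose plus five library-drug doses (not always all listed) in √10 steps, and nuclei were counted after 5 days.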

EPLC-272H = test system: EPLC-272H
Method in brief: as §1

EMC-BAC-2 = test system: EMC-BAC-2
Method in brief: as §1

NCI-H2170 = test system: NCI-H2170
Method in brief: as §1

NCI-H727 = test system: NCI-H727
Method in brief: as §1

NCI-H2009 = test system: NCI-H2009
Method in brief: as §1

NCI-H2023 = test system: NCI-H2023
Method in brief: as §1

NCI-H1437 = test system: NCI-H1437
Method in brief: as §1

ChaGo-K-1 = test system: ChaGo-K-1
Method in brief: as §1

NCI-H1793 = test system: NCI-H1793
Method in brief: as §1

NCI-H2405 = test system: NCI-H2405
Method in brief: as §1

SW 1573 = test system: SW 1573
Method in brief: as §1

NCI-H460 = test system: NCI-H460
Method in brief: as §1

NCI-H441 = test system: NCI-H441
Method in brief: as §1

HOP-62 = test system: HOP-62
Method in brief: as §1

NCI-H520 = test system: NCI-H520
Method in brief: as §1

SW 900 = test system: SW 900
Method in brief: as §1

LOU-NH91 = test system: LOU-NH91
Method in brief: as §1

NCI-H650 = test system: NCI-H650
Method in brief: as §1

NCI-H647 = test system: NCI-H647
Method in brief: as §1

NCI-H2347 = test system: NCI-H2347
Method in brief: as §1

HCC-44 = test system: HCC-44
Method in brief: as §1

Structure (SMILES): COCC1(CO)C(=O)C2CCN1CC2 (stereo not given) [PRIMA-1MET] + O=C(CCCCCCC(=O)Nc1ccccc1)NO [Vorinostat] (partner 1 µM)
- relative viability (NCI-H2126; first compound 0.2 µM): 0.784
- relative viability (NCI-H2126; first compound 0.6325 µM): 0.796
- relative viability (NCI-H2126; first compound 2 µM): 0.606
- relative viability (NCI-H2126; first compound 6.325 µM): 0.765
- relative viability (NCI-H2126; first compound 20 µM): 0.788
- relative viability (EPLC-272H; first compound 0.2 µM): 0.536
- relative viability (EPLC-272H; first compound 0.6325 µM): 0.581
- relative viability (EPLC-272H; first compound 2 µM): 0.417
- relative viability (EPLC-272H; first compound 6.325 µM): 0.534
- relative viability (EPLC-272H; first compound 20 µM): 0.0678
- relative viability (EMC-BAC-2; first compound 0.2 µM): 0.582
- relative viability (EMC-BAC-2; first compound 0.6325 µM): 0.36
- relative viability (EMC-BAC-2; first compound 2 µM): 0.335
- relative viability (EMC-BAC-2; first compound 6.325 µM): 0.527
- relative viability (EMC-BAC-2; first compound 20 µM): 0.271
- relative viability (NCI-H2170; first compound 0.2 µM): 1.05
- relative viability (NCI-H2170; first compound 0.6325 µM): 0.801
- relative viability (NCI-H2170; first compound 2 µM): 0.721
- relative viability (NCI-H2170; first compound 6.325 µM): 0.795
- relative viability (NCI-H2170; first compound 20 µM): 0.774
- relative viability (NCI-H727; first compound 0.2 µM): 0.732
- relative viability (NCI-H727; first compound 0.6325 µM): 0.394
- relative viability (NCI-H727; first compound 6.325 µM): 1.17
- relative viability (NCI-H727; first compound 20 µM): 0.689
- relative viability (NCI-H2009; first compound 0.2 µM): 0.752
- relative viability (NCI-H2009; first compound 0.6325 µM): 0.801
- relative viability (NCI-H2009; first compound 2 µM): 0.668
- relative viability (NCI-H2009; first compound 6.325 µM): 0.5
- relative viability (NCI-H2009; first compound 20 µM): 0.381
- relative viability (NCI-H2023; first compound 0.2 µM): 1.06
- relative viability (NCI-H2023; first compound 0.6325 µM): 0.474
- relative viability (NCI-H2023; first compound 2 µM): 0.442
- relative viability (NCI-H2023; first compound 6.325 µM): 0.734
- relative viability (NCI-H2023; first compound 20 µM): 0.254
- relative viability (NCI-H1437; first compound 0.2 µM): 0.951
- relative viability (NCI-H1437; first compound 0.6325 µM): 0.685
- relative viability (NCI-H1437; first compound 2 µM): 0.792
- relative viability (NCI-H1437; first compound 6.325 µM): 0.939
- relative viability (NCI-H1437; first compound 20 µM): 0.776
- relative viability (ChaGo-K-1; first compound 0.2 µM): 0.858
- relative viability (ChaGo-K-1; first compound 0.6325 µM): 0.431
- relative viability (ChaGo-K-1; first compound 2 µM): 0.627
- relative viability (ChaGo-K-1; first compound 6.325 µM): 0.743
- relative viability (ChaGo-K-1; first compound 20 µM): 0.709
- relative viability (NCI-H1793; first compound 0.2 µM): 0.932
- relative viability (NCI-H1793; first compound 0.6325 µM): 0.488
- relative viability (NCI-H1793; first compound 6.325 µM): 0.797
- relative viability (NCI-H1793; first compound 20 µM): 0.762
- relative viability (NCI-H2405; first compound 0.2 µM): 1.03
- relative viability (NCI-H2405; first compound 0.6325 µM): 0.945
- relative viability (NCI-H2405; first compound 6.325 µM): 0.934
- relative viability (NCI-H2405; first compound 20 µM): 0.106
- relative viability (SW 1573; first compound 0.2 µM): 0.83
- relative viability (SW 1573; first compound 0.6325 µM): 0.553
- relative viability (SW 1573; first compound 2 µM): 0.429
- relative viability (SW 1573; first compound 6.325 µM): 0.0463
- relative viability (SW 1573; first compound 20 µM): 0.0325
- relative viability (NCI-H460; first compound 0.2 µM): 0.949
- relative viability (NCI-H460; first compound 0.6325 µM): 0.588
- relative viability (NCI-H460; first compound 2 µM): 0.686
- relative viability (NCI-H460; first compound 6.325 µM): 0.613
- relative viability (NCI-H460; first compound 20 µM): 0.0194
- relative viability (NCI-H441; first compound 0.2 µM): 0.689
- relative viability (NCI-H441; first compound 0.6325 µM): 0.6
- relative viability (NCI-H441; first compound 2 µM): 0.887
- relative viability (NCI-H441; first compound 6.325 µM): 0.96
- relative viability (NCI-H441; first compound 20 µM): 0.553
- relative viability (HOP-62; first compound 0.2 µM): 0.59
- relative viability (HOP-62; first compound 0.6325 µM): 0.445
- relative viability (HOP-62; first compound 2 µM): 0.488
- relative viability (HOP-62; first compound 6.325 µM): 0.623
- relative viability (HOP-62; first compound 20 µM): 0.245
- relative viability (NCI-H520; first compound 0.2 µM): 0.807
- relative viability (NCI-H520; first compound 2 µM): 0.621
- relative viability (NCI-H520; first compound 6.325 µM): 0.652
- relative viability (NCI-H520; first compound 20 µM): 0.149
- relative viability (SW 900; first compound 0.2 µM): 0.58
- relative viability (SW 900; first compound 0.6325 µM): 0.427
- relative viability (SW 900; first compound 6.325 µM): 0.504
- relative viability (SW 900; first compound 20 µM): 0.129
- relative viability (LOU-NH91; first compound 0.2 µM): 0.987
- relative viability (LOU-NH91; first compound 0.6325 µM): 0.878
- relative viability (LOU-NH91; first compound 2 µM): 0.759
- relative viability (LOU-NH91; first compound 6.325 µM): 0.863
- relative viability (LOU-NH91; first compound 20 µM): 0.296
- relative viability (NCI-H650; first compound 0.2 µM): 0.54
- relative viability (NCI-H650; first compound 0.6325 µM): 0.361
- relative viability (NCI-H650; first compound 2 µM): 0.442
- relative viability (NCI-H650; first compound 6.325 µM): 0.311
- relative viability (NCI-H650; first compound 20 µM): 0.0619
- relative viability (NCI-H647; first compound 0.2 µM): 0.849
- relative viability (NCI-H647; first compound 0.6325 µM): 0.444
- relative viability (NCI-H647; first compound 2 µM): 0.549
- relative viability (NCI-H647; first compound 6.325 µM): 0.538
- relative viability (NCI-H647; first compound 20 µM): 0.596
- relative viability (NCI-H2347; first compound 0.2 µM): 0.574
- relative viability (NCI-H2347; first compound 0.6325 µM): 0.656
- relative viability (NCI-H2347; first compound 2 µM): 0.348
- relative viability (NCI-H2347; first compound 6.325 µM): 0.551
- relative viability (NCI-H2347; first compound 20 µM): 0.327
- relative viability (HCC-44; first compound 0.2 µM): 1.08
- relative viability (HCC-44; first compound 0.6325 µM): 1.03
- relative viability (HCC-44; first compound 2 µM): 1.18
- relative viability (HCC-44; first compound 6.325 µM): 1.18
- relative viability (HCC-44; first compound 20 µM): 1.06
